In patent publication US20220315895A1, “METHODS OF MAKING OLIGOPOTENT AND UNIPOTENT PRECURSORS” (Transfusion Health, LLC, priority 2019, published 2022):

Experiments:
[1] = tested on: CD15+ cells derived from cord blood CD34+ cells; experiment: Progenitor Differentiation and Maturation Cultures, CD15+ output (Example 42); type: cell-based, human
From the text: Progenitor Differentiation Cultures were initiated following 14, 28, 42 and 64 days of CD34 expansion culture. Differentiation Sequences were created by culturing cells in a series of Differentiation Medias, for six or seven days. Differentiation Medias were made with purified cytokines: SCF, G-CSF, GM-CSF, FLT3L, IL-3, IL-6, TPO (all from R&D Systems), prepared in either StemSpan SFEM I or RPMI+10% FBS, as indicated in Table 12A and Table 12B below. Approximately 5,000-10,000 CD34+ cells were seeded into the “Day 0 media” indicated in Table 13 in 12-well plates at the beginning of the Differentiation Culture. At day two or three, a portion of cells was seeded into the subsequent media in the Sequence. If media was to be changed to a different Differentiation Media at a given day, the cells were first placed into 15 mL conical tubes and centrifuged for 5 minutes at 300×g. All supernatant was removed prior to resuspension in new media and re-plating. At days 6 or 7, as indicated in Table 13 and Table 15, a portion of cells was analyzed. […]
A number of quantities were calculated to describe the output of Differentiation Culture and the combined effects of Expansion and Differentiation Culture. These quantities and their relationships are as described in Example 41 and depicted in FIG. 68.

[2] = tested on: expanded cord blood CD34+ cells, erythroid lineage (CD71, CD235a); experiment: Erythroid Differentiation Culture after Expansion Culture (Example 38); type: cell-based, human; settings: for cells with markers of erythrocyte differentiation (CD71 and/or CD235a), of total cells: seven days Erythroid Differentiation Culture; for cells with markers of erythrocyte differentiation (CD71 and/or CD235a), of total cells / cells positive for CD235a (maturing erythrocyte differentiation): average
Experimental: At days 21 and 63, CD34+ enriched cells were placed into Differentiation Cultures, described below.
Differentiation cultures were initiated using Erythroid, Myeloid (granulocyte and monocyte), and Megakaryocyte HemaTox kits from STEMCELL technologies following the manufacturer's instructions. In brief, lineage media was prepared by adding cytokine cocktails for erythrocyte (SCF, IL-3, and EPO), myeloid (i.e. mixed granulocyte/monocyte, SCF, TPO, G-CSF, and GM-CSF) or megakaryocyte (SCF, IL-6, IL-9 and TPO) lineage differentiation to their respective kits' media, then adding approximately 30-100 CD34+ cells for erythroid or myeloid cultures, or 300-1000 CD34+ cells for megakaryoid cultures. Exact cell numbers plated were quantified for later analysis. All incubations for Differentiation Culture took place at 3% oxygen (controlled by nitrogen) and 5% CO2.
Following seven days of erythroid or myeloid cultures, or ten days for megakaryoid cultures, differentiated cell output was quantified using flow cytometry. Erythroid output was quantified using anti-CD71 and anti-CD235a antibodies, and megakaryocyte lineage output was quantified using anti-CD41 and anti-CD42b antibodies. Granulocyte and monocyte lineage outputs were assessed in tandem, using CD14 and CD15 antibodies, with granulocyte lineage cells being CD15+/CD14−, and monocyte lineage cells being CD14+/CD15−.
A number of quantities were calculated to assess the effect of expansion of CD34+ cells in the +Formula I Condition on the output of lineage differentiated cells. “Per-Assayed-CD34+ Cell Output” describes the output of differentiated cells per CD34+ cell placed into Differentiation Culture, and is calculated by dividing the total number of lineage-positive cells by the input CD34+ cell number quantified at Differentiation Culture initiation at day 1, 21, or 63. “Per-expanded-day-1-CD34+ cell output” describes the number of differentiated cells of a given lineage that may be produced from a single CD34+ cell following both Expansion Cell Culture (if expanded) followed by Differentiation Culture, and is calculated by multiplying Per-Assayed-CD34+ Cell Output by the fold expansion of CD34+ cells from day 1 to the day of analysis, either day 21 or day 63. “Per-banked-CBU lineage output” describes the number of differentiated cells of a given lineage that may be produced using the CD34+ cells from a full cord blood unit, and is calculated by multiplying the per-expanded-day-1-CD34+ cell output by 2×10^6, a conservative estimate the number of CD34+ cells in an average cord held in a public cord blood bank (Sun, J., Allison, J., McLaughlin, C., Sledge, L., Waters-Pick, B., Wease, S., and Kurtzberg, J. (2010). Differences in quality between privately and publicly banked umbilical cord blood units: a pilot study of autologous cord blood infusion in children with acquired neurologic disorders. Transfusion (Paris) 50, 1980-1987). This per-banked-CBU lineage output provides the ability to gauge the number of therapeutic units that may be derived from a single cord blood unit available as input to the manufacturing of a therapeutic product, and enables comparison to current state-of-the-art methods. Where relevant therapeutic dose benchmarks were available, this per-banked-CBU lineage output was used to calculate the number of therapeutic units that may be prepared from a single banked CBU unit. We calculated therapeutic units for granulocyte precursors, using 50 billion (5×10^10) cells per dose as a conservative benchmark (Valentini, C. G., Farina, F., Pagano, L., and Teofili, L. (2017). Granulocyte Transfusions: A Critical Reappraisal. Biol. Blood Marrow Transplant. 23, 2034-2041). […]

SMILES: CC(C)(C)C(=O)Nc1ccc2c(c1)C(O)c1ccccc1-2 (stereo not drawn) [Compound 1.010]
- fold increase of CD15+ cell output at days six or seven of Differentiation Culture ([1]; 64 days of CD34+ expansion in +Formula I conditions, condition TT): about 43,000 fold
- CD15+ cells as percentage of total live cells ([1]; expanded in +Formula I conditions 14, 28 and 42 days, Medias A, B, C, H or T, by 6 to 7 days): > 47%
- fold increase of per-expanded-day-1-CD34+ cell output, erythroid lineage, over uncultured cells ([2]; +Formula I expansion (Compound 1.010 8 μM) to day 21, then 7 days differentiation): 301 fold
- fold increase of per-expanded-day-1-CD34+ cell output, erythroid lineage, over uncultured cells ([2]; +Formula I expansion to day 63, then 7 days differentiation): 91,000 fold
- CD71−/CD235a+ cells (mature erythrocytes) ([2]; expanded 21 or 63 days in Formula I condition, day seven of Erythroid Differentiation Culture): No CD71−/CD235a+ cells were detected
- cells with markers of erythrocyte differentiation (CD71 and/or CD235a), of total cells ([2]; expanded 21 days in Formula I Condition): 50%
- cells positive for CD235a (maturing erythrocyte differentiation) ([2]; expanded 21 days in Formula I condition, day seven of Erythroid Differentiation Culture): 46%
- cells with markers of erythrocyte differentiation (CD71 and/or CD235a), of total cells ([2]; expanded 63 days in Formula I Condition): 75%
- cells positive for CD235a (maturing erythrocyte differentiation) ([2]; expanded 63 days in Formula I condition, day seven of Erythroid Differentiation Culture): 86%
